According to PubChem BioAssay (NCI):
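Dose response: 5 concentrations. Exposure: 48 h. Format: 96-well plates. Endpoint: linear interpolation; highest concentration if not reached. Abbreviation: GI50, concentration required for 50% inhibition of growth. The concentration for full growth arrest is given as TGI.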

What was measured:
Experiment in all cases: inhibition of tumour cell growth, NCI panel, 48 h
[1] = tested on: A549 NSCLC
[2] = tested on: BT-549 breast
[3] = tested on: HOP-62 NSCLC
[4] = tested on: IGROV1 ovarian
[5] = tested on: KM12 colon
[6] = tested on: LOX IMVI melanoma
[7] = tested on: OVCAR-3 ovarian
[8] = tested on: PC-3 prostate
[9] = tested on: SK-MEL-28 melanoma
[10] = tested on: SR leukemia

Cc1ccc(C2NC(=S)N3C(c4ccc(C)cc4)NC(=S)N23)cc1 (stereo not given)
GI50 [1]: 5.82 µM | TGI [1]: 20.1 µM | GI50 [2]: 10.3 µM | TGI [2]: 23.7 µM | GI50 [3]: 5.89 µM | TGI [3]: 20.1 µM | GI50 [4]: 8.5 µM | TGI [4]: 22 µM | GI50 [5]: 4.04 µM | TGI [5]: 17.4 µM | GI50 [6]: 8.84 µM | TGI [6]: 22.1 µM | GI50 [7]: 3.26 µM | TGI [7]: 11.5 µM | GI50 [8]: 3.81 µM | TGI [8]: 16.9 µM | GI50 [9]: 11.5 µM | TGI [9]: 24.2 µM | GI50 [10]: 0.491 µM | TGI [10]: 3.55 µM
